Reference: patent US7973047B2, “Beta-Secretase modulators and methods of use” (Amgen Inc., priority 2010, dated 2011)
Read-outs that look alike come from different tables or passages of the source.

Test system: Aβ40 in conditioned medium of cells stably expressing Amyloid Precursor Protein (APP)
Test: BACE cell-based assay: Aβ40 in conditioned medium by sandwich ELISA
Settings: unit inferred, read-out: Cell Assay
How it was run: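 Aβ40 in conditioned medium was read by time-resolved fluorescence sandwich ELISA (capture pAb40, detection biotinylated 6E10, 4° C incubations). Compounds were applied for 24 h to cells stably expressing APP, at 10 doses from 100 or 10 μM top, 0.1% DMSO. IC50 derived from percent of control.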

[1] = cell based assay data of Table 4

Structure (SMILES) | IC50 [1] | IC50 (cell based assay data, Table 4)
CC(=O)N[C@@H](Cc1ccc(N(C)C)cc1)[C@H](O)CN[C@H]1CC2(CCC2)Oc2c1cc(CC(C)(C)C)nc2N(C)C [compound 599] | 0.167 µM | 
CC(=O)N[C@@H](Cc1ccc(F)cc1)[C@H](O)CN[C@H]1CC2(CCC2)Nc2ccc(CC(C)(C)C)cc21 [compound 559, N-((1S,2R)-3-(((4′S)-6′-(2,2-dimethylpropyl)-3′,4′-dihydro-1′H-spiro[cyclobutane-1,2′-quinolin]-4′-yl)amino)-1-((4-fluorophenyl)methyl)-2-hydroxypropyl)acetamide] | 0.105 µM | 
CCc1ccc2c(c1)[C@@H](NC[C@@H](O)[C@H](COC)NC(C)=O)CC1(CCC1)O2 [compound 731] |  | 2.52 µM
CC(=O)N[C@@H](Cc1cccc(F)c1)[C@H](O)CN[C@H]1CC2(CCC2)Oc2ncc([C@@H](F)C(C)C)cc21 [compound 555] | 1.43 µM | 
CC(=O)N[C@@H](Cc1ccc(Cl)cc1)[C@H](O)CN[C@H]1C[C@]2(CC[C@H]2C)Oc2ncc(CC(C)(C)C)cc21 [compound 624] | 0.0615 µM | 
CC(=O)N[C@@H](Cc1cccc(F)c1)[C@H](O)CN[C@H]1CC2(CCC2)Oc2c1cc(CC(C)(C)C)nc2NCCNC(=O)OC(C)(C)C [compound 603] | 0.0129 µM | 
CC(=O)N[C@@H](Cc1cccc(C#N)c1)[C@H](O)CN[C@H]1CC(C)(C)Oc2ccc(Br)cc21 [compound 526] | 0.116 µM | 
CC(=O)N[C@@H](Cc1ccc(Cl)cc1)[C@H](O)CN[C@H]1C[C@@]2(CCOC2)Oc2ncc(CC(C)(C)C)cc21 [compound 669] | ≥ 10 µM | 
CC(=O)N[C@@H](CC1CC1C)[C@H](O)CN[C@H]1CC2(CCC2)Oc2ncc(CC(C)(C)C)cc21 (stereo partly drawn) [compound 723, N-((1S,2R)-3-(((4′S)-6′-(2,2-dimethylpropyl)-3′,4′-dihydrospiro[cyclobutane-1,2′-pyrano[2,3-b]pyridin]-4′-yl)amino)-2-hydroxy-1-((2-methylcyclopropyl)methyl)propyl)acetamide] |  | 0.195 µM
COc1cc(C[C@H](NC(C)=O)[C@H](O)CN[C@H]2CC3(CCC3)Oc3ncc(CC(C)(C)C)cc32)ccc1Cl [compound 721] |  | 0.0214 µM
CC(=O)N[C@@H](CC1CC1)[C@H](O)CN[C@H]1CC2(CCC2)Oc2ncc(CC(C)(C)CC(F)F)cc21 [compound 724, N-((1S,2R)-1-(cyclopropylmethyl)-3-(((4′S)-6′-(4,4-difluoro-2,2-dimethylbutyl)-3′,4′-dihydrospiro[cyclobutane-1,2′-pyrano[2,3-b]pyridin]-4′-yl)amino)-2-hydroxypropyl)acetamide] |  | 0.184 µM
CC(=O)N[C@@H](Cc1ccnc(OC(F)F)c1)[C@H](O)CN[C@H]1CC2(CCC2)Oc2ncc(CC(C)(C)C)cc21 [compound 726, N-((1S,2R)-1-((2-((difluoromethyl)oxy)-4-pyridinyl)methyl)-3-(((4′S)-6′-(2,2-dimethylpropyl)-3′,4′-dihydrospiro[cyclobutane-1,2′-pyrano[2,3-b]pyridin]-4′-yl)amino)-2-hydroxypropyl)acetamide] |  | 0.00972 µM
COC(=O)N[C@@H](Cc1ccccc1)[C@H](O)CN[C@H]1CC(C)(C)Cc2sc(CC(C)(C)C)cc21 [compound 655, methyl ((1S,2R)-3-(((4S)-2-(2,2-dimethylpropyl)-6,6-dimethyl-4,5,6,7-tetrahydro-1-benzothien-4-yl)amino)-2-hydroxy-1-(phenylmethyl)propyl)carbamate] | 0.105 µM | 
COC(=O)c1ccc2c(c1)[C@@H](NC[C@@H](O)[C@H](Cc1cccc(C#N)c1)NC(C)=O)CC1(CCC1)O2 [compound 729] |  | 1.45 µM
CC(=O)N[C@@H](Cc1ccc(F)cc1)[C@H](O)CN[C@H]1C[C@@]2(CC[C@@H]2C)Oc2ncc(CC(C)(C)C)cc21 [compound 625] | ≥ 10 µM | 
CC(=O)N[C@@H](Cc1ccccc1)[C@H](O)CN[C@H]1CC(C)(C)Oc2ncc(CC(C)(C)C)cc21 [compound 545] | 0.00461 µM | 
CC(=O)N[C@@H](Cc1ccc(OC(F)(F)F)cc1)[C@H](O)CN[C@H]1CC2(CCC2)Oc2ncc(CC(C)(C)C)cc21 [compound 712] |  | 0.065 µM
CC(=O)N[C@@H](Cc1ccccc1)[C@H](O)CN[C@H]1CC2(CCC2)Oc2ncc(CC(C)C)cc21 [compound 523] | 0.00409 µM | 
CC(=O)N[C@@H](Cc1cccc(F)c1)[C@H](O)CN[C@@H]1CC2(CCC2)Oc2c1cc(CC(C)(C)C)nc2OC(C)C [compound 609] | 0.0667 µM | 
CC(=O)N[C@@H](Cc1cc(C)nc(Cl)c1)[C@H](O)CN[C@H]1CC2(CCC2)Oc2ncc(CC(C)(C)C)cc21 [compound 644, N-((1S,2R)-1-((2-chloro-6-methyl-4-pyridinyl)methyl)-3-(((4′S)-6′-(2,2-dimethylpropyl)-3′,4′-dihydrospiro[cyclobutane-1,2′-pyrano[2,3-b]pyridin]-4′-yl)amino)-2-hydroxypropyl)acetamide] | 0.00632 µM | 
CCNc1cc(C[C@H](NC(C)=O)[C@H](O)CN[C@H]2CC3(CCC3)Oc3ncc(CC(C)(C)C)cc32)ccc1F [compound 710] | 0.00425 µM | 
CC(C)(C)Cc1cnc2c(c1)[C@@H](NC[C@@H](O)[C@H](Cc1ccc(F)cc1)NC(=O)CC(F)(F)F)CC1(CCC1)O2 [compound 632] | 0.308 µM | 
CC(=O)N[C@@H](Cc1ccccc1Cl)[C@H](O)CN[C@H]1CC2(CCC2)Oc2ncc(CC(C)(C)C)cc21 [compound 708] | 0.0234 µM | 

Now from value to compound:

IC50 [1] | IC50 (cell based assay data, Table 4) | Structure (SMILES)
 | 0.00233 µM | CC(=O)N[C@@H](Cc1cc(Cl)ccc1F)[C@H](O)CN[C@H]1CC2(CCC2)Oc2ncc(CC(C)(C)C)cc21 [compound 867]
 | 0.325 µM | CCc1cnc2c(c1)[C@@H](NC[C@@H](O)[C@H](Cc1cc(F)cc(F)c1)NC(=O)OC)CC1(CCC1)O2 [compound 875]
 | 0.0177 µM | CC(=O)Nc1ccc2c(c1)[C@@H](NC[C@@H](O)[C@H](Cc1cc(F)cc(F)c1)NC(C)=O)CC1(CCC1)O2 [compound 789]
 | 0.298 µM | C/C=C/C[C@H](NC(C)=O)[C@H](O)CN[C@H]1CC2(CCC2)Oc2ncc(CC(C)(C)C)cc21 [compound 739, N-((1S,3E)-1-((1R)-2-(((4′S)-6′-(2,2-dimethylpropyl)-3′,4′-dihydrospiro[cyclobutane-1,2′-pyrano[2,3-b]pyridin]-4′-yl)amino)-1-hydroxyethyl)-3-penten-1-yl)acetamide]
 | ≥ 10 µM | CCc1ccc2c(c1)[C@@H](NC[C@@H](O)[C@H](COCc1ccccc1)NC(C)=O)CC1(CCC1)O2 [compound 733]
 | 0.00126 µM | CC(=O)N[C@@H](Cc1cccc(C#N)c1)[C@H](O)CN[C@H]1CC2(CCC2)Oc2ncc(CC(C)C)cc21 [compound 849]
 | 0.00155 µM | CC(=O)N[C@@H](Cc1cc(F)cc(F)c1)[C@H](O)CN[C@H]1CC2(CC(C)C2)Oc2ncc(CC(C)(C)C)cc21 (stereo partly drawn) [compound 764]
 | 0.0264 µM | CC(=O)N[C@@H](Cc1cccc(F)c1)[C@H](O)CN[C@H]1CC2(CCC2)Oc2ncc(C(F)C(C)C(F)(F)F)cc21 (stereo partly drawn) [compound 861]
 | 0.00203 µM | CC(=O)N[C@@H](Cc1cc(F)cc(F)c1F)[C@H](O)CN[C@H]1CC2(CCC2)Oc2ncc(CC(C)(C)C)cc21 [compound 871]
 | 0.452 µM | CC(=O)N[C@@H](Cc1cc(F)cc(F)c1)[C@H](O)CN[C@H]1CC2(CCC2)Oc2cc(F)c(NC3CCOCC3)cc21 [compound 806]
 | 0.052 µM | CC(=O)N[C@@H](Cc1ccccc1)[C@H](O)CN[C@H]1CC2(CCC2)Oc2nc(F)c(CC(C)C)cc21 [compound 852]
 | ≥ 10 µM | CC(=O)N[C@@H](Cn1cccn1)[C@H](O)CN[C@H]1CC2(CCC2)Oc2ncc(CC(C)(C)C)cc21 [compound 735]
 | 0.0388 µM | CC(=O)N[C@@H](Cc1cc(F)cc(Cl)c1)[C@H](O)CN[C@H]1CC2(CCC2)Oc2cnc(CC(C)(C)O)cc21 [compound 751]
 | 0.0689 µM | CC(=O)N[C@@H](Cc1cc(F)cc(Cl)c1)[C@H](O)CN[C@H]1CC(C)(C)Oc2c1cc(CC(C)(C)C)nc2N(C)C [compound 757]
 | 2.63 µM | CC(=O)N[C@@H](CC1CCCN(C)C1)[C@H](O)CN[C@H]1CC2(CCC2)Oc2ncc(CC(C)(C)C)cc21 (stereo partly drawn) [compound 829]
 | 0.0527 µM | CC(=O)N[C@@H](Cc1ccc(Cl)cc1)[C@H](O)CN[C@H]1CC2(CCC2)Oc2ncc(CC(C)C)cc21 [compound 858]
 | 0.00172 µM | CC(=O)N[C@@H](Cc1cc(F)cc(F)c1)[C@H](O)CN[C@H]1CC2(CCC2)Oc2ncc(CC(C)C)cc21 [compound 846]
 | 0.206 µM | CC(=O)N[C@@H](Cc1cccc(F)c1F)[C@H](O)CN[C@H]1CC2(CCC2)Oc2nc(F)c(CC(C)C)cc21 [compound 856]
 | 0.124 µM | CC(=O)N[C@@H](Cc1cc(F)cc(F)c1)[C@H](O)CN[C@H]1CC2(CCC2)Oc2c1cc(Cl)cc2-n1cccn1 [compound 776]
 | 0.00427 µM | CC(=O)N[C@@H](Cc1cc(F)cc(Cl)c1)[C@H](O)CN[C@H]1CC2(CCC2)Oc2ncc(CC(C)C)cc21 [compound 847]
 | 2.95 µM | CC(=O)N[C@@H](Cc1cc(F)cc(F)c1)[C@H](O)CN[C@H]1CC2(CCC2)Oc2cc(F)ccc21 [compound 804]
 | 0.0522 µM | CC(=O)N[C@@H](Cc1ccccc1)[C@H](O)CN[C@H]1CC2(CCC2)Oc2c1cc(CC(C)(C)C)nc2N1CCOCC1 [compound 754]
 | 0.0401 µM | CC(=O)N[C@@H](Cc1ccc(F)c(F)c1)[C@H](O)CN[C@H]1CC(C)(C)Oc2c1cc(CC(C)(C)C)nc2N1CCCC1 [compound 758]
 | 0.286 µM | CCC#CC[C@H](NC(C)=O)[C@H](O)CN[C@H]1CC2(CCC2)Oc2ncc(CC(C)(C)C)cc21 [compound 742]
 | 0.803 µM | CC(=O)N[C@@H](Cc1cc(F)cc(F)c1)[C@H](O)CN[C@H]1CC2(CCC2)Oc2ccc(-n3nccn3)cc21 [compound 791]
 | 0.0662 µM | CC(=O)N[C@@H](Cc1ccccc1)[C@H](O)CN[C@H]1CC2(CCC2)Oc2ccc(CCCCCO)cc21 [compound 822]
 | 0.137 µM | CC(=O)N[C@@H](Cc1cc(F)cc(F)c1)[C@H](O)CN[C@H]1CC2(CCC2)Oc2ccc(-n3cncn3)cc21 [compound 792]
 | 0.00931 µM | CC(=O)N[C@@H](Cc1ccc(F)c(Br)c1)[C@H](O)CN[C@H]1CC2(CCC2)Oc2ncc(CC(C)(C)F)cc21 [compound 834]
